Assay results from a melting point compilation (Tetko et al.; mined from patent text by program, amines drawn as free bases though some values may be those of a salt).

Point of comparison: `CCCCCCCCCCCCCCOC(=O)CCC1(CO)CCC(=O)O1` (stereo not given), melting point 59 °C. Against it:
- CC(=O)OC1CSC(Oc2cncc(-c3ccncc3)c2)C(OC(C)=O)C1OC(C)=O (stereo not given) — higher, 138 °C
- COCCOc1cc2ncnc(NC3=CC(=O)C(Oc4ccc(C)cc4)=CC3=O)c2cc1OC — higher, 171 to 172 °C
- FC(F)(F)c1c(Cl)c(Cl)c(C=S)c(Cl)c1Cl — higher, 98.5 to 100 °C
- C[C@@H](NC(=O)c1sc(-c2ccc(Cl)cc2)cc1N)[C@](O)(Cn1cncn1)c1ccc(F)cc1F — higher, 107 to 111 °C
- COc1cccc(CNC(=O)c2nc3scc(CNC(=O)c4ccc(C(=O)O)cc4)c3c(=O)[nH]2)c1 — higher, 285 to 286 °C
- CC(=O)C(=NNc1ccc(OC(C)(C)C)cc1)Sc1ccc(Cl)cc1 — higher, 107 to 108 °C
- C1COC(NC(C2CC2)C2CC2)=N1 — higher, 105 to 106 °C
- Cc1ccc(-n2nc(C(F)(F)F)cc2-c2ccc(S(C)(=O)=O)cc2)cc1F — higher, 158 to 160 °C
- CCCCc1nc2ccc(N(C)C(=O)NC)cc2n1Cc1ccc(-c2ccccc2C(=O)O)cc1 — higher, 163 to 165 °C
- CCCc1nc2c(N)nc3cc(OCCCCCCNC(C)=O)ccc3c2n1CCCCNS(C)(=O)=O — higher, 168 to 172 °C
- CC(=NOCC=Cc1ccccc1)C(=O)Cl — higher, 120 to 121 °C
- COc1cccc2c(=O)cc(-c3ccc(O)cc3)oc12 — higher, 281 to 283 °C
- COC(=O)c1[nH]c2ncccc2c1-c1ccc(N)cc1 — higher, 236 °C
- Cc1ccc(-c2ccc(C(=O)Nc3ccc4cc(CN5CCCC5)cnc4c3)cn2)cc1 — higher, 226 to 228 °C
- CN=C1CN(c2ccccc2)C(=O)N1C — higher, 160 to 162 °C
- O=C(NC1(C(=O)O)CC1)OCCOC(=O)c1ccccc1 — higher, 174 to 176 °C
- Cc1cc(-c2cccc(NC(=O)N[C@@H]3c4cc(C#N)ccc4OC(C)(C)[C@H]3O)c2)on1 — higher, 140 to 148 °C
- Cc1cc(C)c(/C=C2\C(=O)N(CN3CCN(C)CC3)c3ccccc32)[nH]1 — higher, 160 to 164 °C
- CC(C)OCCCNc1c([N+](=O)[O-])cnc2cccnc12 — higher, 62.5 to 63.5 °C
- CC1(C)CC(=O)NC2=C1c1ccc(Cl)cc1CC2 — higher, 213 °C
- O=C(Nc1cc2c(cc1C(=O)c1ccccc1)OCO2)c1ccccc1 — higher, 195 to 197 °C
- CCOC(=O)c1nc2scc(CNC(=O)c3ccc(C(=O)OC)cc3)c2c(=O)[nH]1 — higher, 236 °C
- COc1cc2c(cc1OC)CN(CCCCNC(=O)c1cc(C)ccc1OCCF)CC2 — higher, 131 to 133 °C
- CCOc1cc(C)ccc1C1CCN(CCCCNC(=O)c2ccc(-c3ccc(C(F)(F)F)cc3)cc2)CC1 — higher, 191 °C
- CN1C(=O)CCCc2cc(Nc3ncc(Cl)c(Nc4ccc(N5CCOCC5)cc4C(N)=O)n3)ccc21 — higher, 288 to 290 °C
- CC#CC(C)n1nnc2cc3c(=O)n(C(C)Cn4ncnn4)nnc3cc2c1=O (stereo not given) — higher, 72 to 74 °C
- O=c1[nH]c(=O)n(C2CC(O)C(CO)O2)cc1C=CBr (stereo not given) — higher, 165 to 166 °C
- CCNCc1ccc2nc(C)[nH]c(=O)c2c1 — higher, > 260 °C
- CCOC(=O)[C@H](Cc1ccc(O)cc1)NC(=O)c1c(F)cccc1Cl — higher, 144 to 145 °C
- CCN(CC)CC1CCCCN1CCNC(=O)N1c2cc(C)ccc2C(=O)Nc2cccnc21 (stereo not given) — higher, 183 to 185 °C
- Clc1ccc(-c2nn(-c3ccc(Br)cc3)cc2CCc2nnn[nH]2)cc1 — higher, 164 to 166 °C
- Cc1ccc2oc(=O)c(C(=O)Oc3cccc4cnccc34)cc2c1 — higher, 188 to 190 °C
- Brc1cccc(C2Cc3cnc(Nc4ccc(CCN5CCN(c6ccccc6)CC5)cc4)nc3-c3ccccc32)c1 (stereo not given) — higher, 113 to 115 °C
- CC(O)CNC(=O)NC(=O)C(CC1CCCC1)c1ccc(Cl)c(Cl)c1 (stereo not given) — higher, 117 to 120 °C
- CNc1c([N+](=O)[O-])cc(C(C)(C)C)cc1[N+](=O)[O-] — higher, 129 to 130 °C
- COC(=O)CC1Sc2sc(S(N)(=O)=O)cc2NC1=O (stereo not given) — higher, 195 to 197 °C
- Fc1ccc2[nH]c(SCC(F)(F)F)nc2c1 — higher, 136 to 139 °C
- Nc1c(F)c(N2Cc3cccc(Cl)c3C2)c(F)c2c1c(=O)c(C(=O)O)cn2C1CC1 — higher, > 280 °C
- CC(C)CS(=O)c1ccc(N)c([N+](=O)[O-])c1 (stereo not given) — higher, 111 to 118 °C
- O=C(Nc1ccc2ccc(Cl)nc2n1)c1ccc(Cl)cc1 — higher, 268 °C
- CC12CCC(=O)C([N+](=O)[O-])=C1CCC1C2CCC2(C)C(O)CCC12 (stereo not given) — higher, 158 to 160 °C
- CCCCCCCC(=O)Oc1ccc(C(=O)O)cc1 — lower, 51 °C
- COC(=O)COc1cc2c(c3c1c(C(=O)C(N)=O)c(C)n3Cc1cccc(F)c1)CCC2 — higher, 142 to 144 °C
- CCOc1cc2nc(NC)nc(-c3cccc(Br)c3)c2cc1OCC — higher, 130 to 132 °C
- Cc1cccc(N2CC(C)C(N)=N2)n1 (stereo not given) — higher, 181 to 185 °C
- Cc1cc(Cl)cc(C(=O)CC(=O)C2CCCCC2)c1O — higher, 76 to 77 °C
- CC1c2ccccc2-c2ccccc2N1S(=O)(=O)c1ccc(O)c(CO)c1 (stereo not given) — higher, 182 to 184 °C
- COc1c(O)c(C)c2c(c1OC)OC(C)(CN1CCC(c3ccccc3)CC1)C2 (stereo not given) — higher, 112 to 113 °C
- O=C(O)c1cc(Oc2ccc(Cl)cc2)c(Cl)cc1[N+](=O)[O-] — higher, 160 to 162 °C
- O=C1C2=C(SCCO2)C(=O)N1c1ccc(Cl)cn1 — higher, 152 °C
- CC(O)c1cccc(-c2cc3c(=O)n(NS(C)(=O)=O)c(=O)[nH]c3cc2C(F)(F)F)c1 (stereo not given) — higher, 165 to 169 °C
- N#Cc1ccc(S(=O)(=O)N2CCN(C(=O)C3CCN(c4ccncn4)CC3)CC2)cc1 — higher, 180 to 181 °C
- CCOC(=O)Cn1c(=O)c2cc(Cl)ccc2n(Cc2ccc(Cl)cc2)c1=O — higher, 137 to 138 °C
- CNC(=O)C(C)(C)CCCCC1(CCCCC(C)(C)C(=O)NC)SCCCS1 — higher, 104 to 106 °C
- CC12CC(O)C3(F)C(CCC4=CC(=O)C=CC43C)C1CCC2S (stereo not given) — higher, 295 to 297 °C
- COc1cc(CCN2CCC(NC(=O)c3ccccc3)CC2)cc(OC)c1OC — higher, 193 to 194 °C
- Nc1ccnc(N2CCC(c3ccc(S(N)(=O)=O)cc3)CC2)c1 — higher, 290 to 295 °C
- O=[N+]([O-])c1cnn2c(-c3ccccc3C(F)(F)F)ccnc12 — higher, 195 to 197 °C
- C[C@@H](n1cnc2ccccc2c1=O)[C@](O)(Cn1cncn1)c1ccc(F)cc1F — higher, 122 to 128 °C
- Oc1ccc(-c2nc(-c3ccc(Cl)cc3)nc(-c3ccc(O)cc3O)n2)c(O)c1 — higher, 232 to 234 °C
- CC(=O)C1CCC2C3CC=C4CCCCC4(C)C3CCC12C (stereo not given) — higher, 207 to 209 °C
- O=C(CCc1cccc(F)c1F)c1cnc2sc3c(n12)CCCCC3 — higher, 108 to 110 °C
- Cc1ccc2sc3cc(C(C)(C)[N+](=O)[O-])ccc3c(=O)c2c1 — higher, 170 to 173 °C
- COc1cc(C2Oc3cc(C4Oc5cc(O)cc(O)c5C(=O)C4O)ccc3OC2CO)ccc1O (stereo not given) — higher, 167 to 180 °C
- O=C(O)COCCOc1c(-c2cccc(C(F)(F)F)c2)cc(C(=O)NCCCCCCc2ccccc2)cc1-c1cccc(C(F)(F)F)c1 — higher, 74.7 to 75.9 °C
- NC(=O)c1cccc(OCCCCC/C=C\c2ccc(Cl)o2)c1 — lower, 53 to 56 °C
- CC#CC(=O)Nc1cccc(-c2ccnc3c(C(=O)c4cccs4)cnn23)c1 — higher, 202 to 203 °C
- CN(CC(=O)OCCCCNc1cccc2c1C(=O)c1ccccc1C2=O)C(=O)OC(C)(C)C — higher, 90 °C
- Clc1ccc2c(C=Cc3ccccc3)ccnc2c1 — higher, 120 to 122 °C
